Measurements: ChEMBL document CHEMBL1128375, “Prodrugs of nitroxyl as potential aldehyde dehydrogenase inhibitors vis-a-vis vascular smooth muscle relaxants” (J Med Chem, 1995)

Species: Oryctolagus cuniculus
Assay: In vitro relaxation of precontracted rabbit aortic rings.
Format: functional
Conditions: Aorta

EC50	Structure (SMILES)
52.2 µM	CC(=O)ON1C(=O)c2ccccc2S1(=O)=O
14.4 µM	O=C1c2ccccc2S(=O)(=O)N1O
1.36 µM	O=S(=O)(NO)c1ccc(Cl)cc1
1.03 µM	O=S(=O)(NO)c1ccccc1
